# Results published in ChEMBL document CHEMBL1133579, “Derivation of pharmacophore and CoMFA models for leukotriene D(4) receptor antagonists of the quinolinyl(bridged)aryl series” (J Med Chem, 2000).
# Biological target: T1, Cysteinyl leukotriene receptor 1 (Cavia porcellus, UniProt Q2NNR5)
# T1 sequence (Q2NNR5 whole entry): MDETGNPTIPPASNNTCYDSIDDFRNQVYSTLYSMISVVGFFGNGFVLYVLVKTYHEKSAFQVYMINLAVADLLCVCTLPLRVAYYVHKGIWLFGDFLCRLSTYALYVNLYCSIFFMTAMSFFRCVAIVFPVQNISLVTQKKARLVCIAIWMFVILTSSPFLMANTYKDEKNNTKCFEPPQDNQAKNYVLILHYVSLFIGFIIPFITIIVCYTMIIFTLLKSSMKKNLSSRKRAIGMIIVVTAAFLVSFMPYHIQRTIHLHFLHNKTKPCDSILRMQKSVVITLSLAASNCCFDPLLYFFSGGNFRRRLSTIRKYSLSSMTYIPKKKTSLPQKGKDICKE
# Experiment: In vitro binding affinity towards Cysteinyl leukotriene D4 receptor by using [3H]LTD4 binding assay in guinea pig lung membranes; call rule not given here
# Assay type: cell membranes, Membrane
row,Ki,Structure (SMILES)
1,38 nM,CC(C(=O)Nc1ccc(CCCC(=O)O)cc1)c1ccc2cc(OCc3ccc4ccccc4n3)ccc2c1 (stereo not given)
2,2.4 nM,O=C(O)Cc1ccc(CCNS(=O)(=O)c2ccc3ccc(OCc4ccc5ccccc5n4)cc3c2)cc1
3,7.3 nM,O=C(O)CCCc1ccc(NC(=O)Cc2ccc(OCc3ccc4ccccc4n3)cc2)cc1
4,360 nM,CC(C(=O)NCCCCC(=O)O)c1ccc2cc(OCc3ccc4ccccc4n3)ccc2c1 (stereo not given)
5,297 nM,CN(C(=O)Cc1ccc(OCc2ccc3ccccc3n2)cc1)c1ccc(CCCC(=O)O)cc1
6,118 nM,CC(C(=O)Nc1ccc(C(=O)O)cc1)c1ccc2cc(OCc3ccc4ccccc4n3)ccc2c1 (stereo not given)
7,70 nM,CC(C(=O)NCc1ccc(C(=O)O)cc1)c1ccc2cc(OCc3ccc4ccccc4n3)ccc2c1 (stereo not given)
8,5.6 nM,O=C(O)c1ccc(CCCOc2ccc3ccc(OCc4ccc5ccccc5n4)cc3c2)cc1
9,40 nM,O=C(O)CCCc1ccc(NC(=O)Cc2cccc(OCc3ccc4ccccc4n3)c2)cc1
10,134 nM,CC(C(=O)NCc1ccc(CC(=O)O)cc1)c1ccc2cc(OCc3ccc4ccccc4n3)ccc2c1 (stereo not given)
11,1.05 nM,O=C(O)c1ccc(CCNC(=O)c2ccc3ccc(OCc4ccc5ccccc5n4)cc3c2)cc1

# Second part, the compound before the results:
row,Structure (SMILES),Ki
1,O=C(Nc1cccc2c(=O)cc(C(=O)O)oc12)c1ccc(OCc2ccc3ccccc3n2)cc1,168 nM
2,Cc1ccccc1S(=O)(=O)NC(=O)c1ccc(CCNC(=O)c2ccc3ccc(OCc4ccc5ccccc5n4)cc3c2)cc1,15 nM
3,O=C(O)c1ccc(CCNC(=O)C2CCc3ccc(OCc4ccc5ccccc5n4)cc3O2)cc1 (stereo not given),237 nM
4,O=C(O)c1ccc(CCNS(=O)(=O)c2ccc3ccc(OCc4ccc5ccccc5n4)cc3c2)cc1,2.6 nM
5,Cn1cc(CC(=O)NCc2ccc(-c3nn[nH]n3)cc2)c2cc(OCc3ccc4ccccc4n3)ccc21,1050 nM
6,O=C(Nc1cccc2c(=O)cc(C(=O)O)oc12)c1ccc2ccc(OCc3ccc4ccccc4n3)cc2c1,30 nM
7,O=C(O)CCCc1ccc(NC(=O)Cc2ccc(OCc3ccc4ccc(Cl)cc4n3)cc2)cc1,4.8 nM
8,O=C(O)c1ccc2c(ccn2Cc2ccc3ccc(OCc4ccc5ccccc5n4)cc3c2)c1,30 nM
9,O=C(Cc1ccc(OCc2ccc3ccccc3n2)cc1)Nc1ccc(CCCc2nnn[nH]2)cc1,88 nM
10,CC(C(=O)NCc1cccc(-c2nnn[nH]2)c1)c1ccc2cc(OCc3ccc4ccccc4n3)ccc2c1 (stereo not given),29 nM
11,O=C(Cc1ccc(OCc2ccc3ccccc3n2)cc1)Nc1ccc(Cc2nnn[nH]2)cc1,108 nM
12,O=C(Nc1ccc(CCCc2nnn[nH]2)cc1)c1ccc(OCc2ccc3ccccc3n2)cc1,595 nM
13,O=C(O)c1ccc(CCNC(=O)c2ccc3ccc(OCc4ccc(-c5ccccc5)cn4)cc3c2)cc1,79 nM
14,O=C(O)c1ccc(OCC(O)COc2ccc3ccc(OCc4ccc5ccccc5n4)cc3c2)cc1 (stereo not given),4 nM
15,O=C(Cc1ccc(OCCCCc2ccccc2)cc1)Nc1ccc(CCCc2nnn[nH]2)cc1,2590 nM
16,O=C(O)c1ccc(Cc2noc(-c3ccc4ccc(OCc5ccc6ccccc6n5)cc4c3)n2)cc1,15 nM

# Biological target: T1, Cysteinyl leukotriene receptor 1
# Experiment: In vitro binding affinity towards Cysteinyl leukotriene D4 receptor by using [3H]LTD4 binding assay in guinea pig lung membranes; IA means inactive
# Assay type: cell membranes
row,Ki,Structure (SMILES)
1,Not Active,O=C(O)c1ccc(CCNC(=O)c2ccc3ccc(OCc4ccc5ccccc5c4)cc3c2)cc1
2,Not Active,Cc1cn(Cc2ccc3ccccc3n2)c2cc(C(=O)NCCc3ccc(C(=O)O)cc3)ccc12
3,Not Active,O=C(O)c1ccc(CCNC(=O)c2cc(=O)c3ccc(OCc4ccc5ccccc5n4)cc3o2)cc1
